From US9353152B2, “Induction of the mitochondrial permeability transition” (NewSouth Innovations Pty Limited, priority 2002, dated 2016) come the findings set out here.

Series [1] concerns the target T1, MPTP (Rattus norvegicus, UniProt Q09073).
T1 construct: Mitochondria were isolated from the livers of ˜250 g male Wistar rats; from tissue; host or cells: rat liver mitochondria (male Wistar rats)
T1 sequence (Q09073 2-298 limits assumed): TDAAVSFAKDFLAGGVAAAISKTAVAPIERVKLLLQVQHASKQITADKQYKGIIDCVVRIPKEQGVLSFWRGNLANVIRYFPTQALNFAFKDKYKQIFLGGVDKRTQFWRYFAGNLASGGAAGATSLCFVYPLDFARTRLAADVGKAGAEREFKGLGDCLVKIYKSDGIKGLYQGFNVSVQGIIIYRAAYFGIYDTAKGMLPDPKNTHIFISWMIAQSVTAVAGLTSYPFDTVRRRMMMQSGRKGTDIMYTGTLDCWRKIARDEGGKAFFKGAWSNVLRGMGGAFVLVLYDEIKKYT
Description: Mitochondria swelling assay (MPT induction, decrease in light scattering at 520 nm). The format is biochemical.

Series [2] deals with BAE cells. Description: Mitochondrial membrane potential (JC-1) and apoptosis (annexin V) by flow cytometry. The format is cell-based, bovine. The settings on record: 10% serum, 48 h. As to the method:
For measurements of superoxide levels with dihydroethidine, mitochondrial membrane potential with JC-1, mitochondrial mass with nonyl acridine orange, and apoptosis with annexin V, proliferating or growth-quiescent BAE cells were treated for 24 or 48 h with GSAO in six-well culture plates, then detached with trypsin/EDTA, washed once, and resuspended at 2×10^6 cells per mL in serum-free medium. Cells were then incubated for 15 min at room temperature with dihydroethidine (5 μM, Molecular Probes) or 30 min at room temperature with JC-1 (0.5 μg·mL^−1, Molecular Probes), annexin V-FITC (50 μl·mL^−1) (Pharmingen, La Jolla, Calif., USA), or acridine orange 10-nonyl bromide (5 μM, Molecular Probes). Cells were then washed once, resuspended in 0.5 mL serum-free medium, transferred to ice, and fluorescence was quantitated immediately by flow cytometry.
Background: Flow cytometry measures light scatter and fluorescence of single cells or particles in a stream.

Series [3] relates to A549 (human lung carcinoma). Description: Proliferation arrest and loss of viability (cell number and propidium iodide, flow cytometry). The format is cell-based. The note with it: A549, 48 h. As to the method:
(§1) To distinguish between the anti-proliferative and pro-apoptotic effects of GSAO, treated cells were stained with propidium iodide (PI) to detect late-apoptotic or dead cells. The total number of cells and the proportion of cells that were PI-positive following 48 h treatment with GSAO were measured by flow cytometry.

Series [4] concerns BAE (bovine aortic endothelial). The description is as above. The format is cell-based. The settings on record: 48 h. As for the experimental part:
as §1

Series [5] concerns BxPC-3 (human pancreatic carcinoma). The series is described as above. The format is cell-based. The settings on record: for IC50: BxPC-3, 48 h. As to the method: as §1
Series [6] has as its system HDMVE (human dermal endothelial). Described as above. The format is cell-based. The note with it: 48 h. As to the method: as §1
Series [7] relates to HL60 (human erythroid leukaemia). The series is described as above. The format is cell-based. The note with it: HL60, 48 h. As for the experimental part:
as §1

The subject of series [8] is HT1080 (human fibrosarcoma). The series is described as above. The format is cell-based. The settings on record: HT1080, 48 h. As to the method: as §1
Series [9] deals with LLC (murine lung carcinoma). Described as above. The settings on record: 48 h. The format is cell-based. As to the method:
as §1

The test system of series [10] is BxPC-3 tumours. Nature of the series: Immunohistochemistry of tumour sections (CD31, PCNA, TUNEL). The format is in vivo, SCID mice. The note with it: day 31, GSAO- versus GSAA-treated tumours. From the text: Tumours were fixed in Buffered Formalde-Fresh (Fisher Scientific, Fair Lawn, N.J.), embedded in paraffin and 5 μm thick sections were cut and placed on glass slides. Sections were stained with haematoxylin and eosin or for CD31, PCNA (Holmgren et al., 1995) or fragmented DNA (Gavrielli et al., 1992). […] The proliferative index was estimated by the percentage of cells scored under 400× magnification. A minimum of 1000 cells was counted in two separate sections. The apoptotic index was estimated by the percentage of cells scored under 400× magnification. A minimum of 1500 cells was counted in two separate sections.

Series [11] is described as follows: Tolerability in tumour-bearing mice. The format is in vivo, SCID or C57Bl6/J mice. As to the method: Female 7 to 9 week old SCID or C57Bl6/J mice were used (Massachusetts General Hospital, Boston, Mass.). Mice were held in groups of 3 to 5 at a 12 hour day and night cycle and were given animal chow and water ad libidum. SCID or C57Bl6/J mice were anaesthetised by inhalation of isoflurane, the dorsal skin shaved and cleaned with ethanol, and a suspension of 2.5×10^6 BxPC-3, HT1080 or LLC cells in 0.2 mL of PBS, or saline for LLC cells, was injected S.C. in the proximal midline. LLC cells were prepared according to O'Reilly et al. (1997). Tumour volume was calculated using the relationship, a·b^2·0.52, where a is the longest and b the shortest diameter.

A short description of series [12]: Side-effects in Balb-C nude mice bearing BxPC-3 tumours. The format is in vivo. The settings on record: 1 or 10 mg/kg/day s.c. As for the experimental part:
Female 7 to 9 week old Balb C nude were used (UNSW Biological Resource Centre). Mice were held in groups of 3 to 5 at a 12 h day and night cycle and were given animal chow and water ad libidum. A suspension of 2.5×10^6 BxPC-3 cells in 0.2 mL of PBS was injected subcutaneously in the proximal midline. Tumours were allowed to establish and grow to a size of ˜40 mm^3 after which they were randomised into four groups. Tumour volume was calculated using the relationship, a·b^2·0.52, where a is the longest and b the shortest diameter. Animals were treated with either GSAO or o-GSAO at a dose 1 or 10 mg/kg/day in 0.1 mL of PBS. The compounds were administered subcutaneously at a site distant from the tumour. Tumour volume and animal weight was measured every 2 or 3 days.
Balb-C nude mice bearing ˜40 mm^3 BxPC-3 tumours were randomised into four groups (n=10 or 11 per group) and treated subcutaneously with either GSAO (part A) or o-GSAO (part B) at 1 or 10 mg/kg/day in 0.1 mL of PBS. Parts C and D are the mice weights for the respective groups, where the arrow indicates start of treatment. The data points are the mean±SE of the tumour volumes or mice weights. Treatment with 10 mg/kg o-GSAO (part B) was stopped at day 14 due to necrosis and inflammation at sites of injection in 7 out of 11 mice (3/11 with severe ulcers, 4/11 with medium ulcers).

The mark [13] stands for this setting: read-out: Loss of Viability IC50.
Setting [14] is: read-out: Proliferation Arrest IC50.

“And” between values parts separate entries of the source, which are not always exact repeats. Equal entries are not always repeated. Where two headings read alike, the source gives them in different places. Where only a bound is given, the exact number is not on record here.

In the case of `N[C@@H](CCC(=O)N[C@@H](CSCC(=O)Nc1ccc([As]=O)cc1)C(=O)NCC(=O)O)C(=O)O` (stereo partly drawn) [GSAO, 4-(N—(S-glutathionylacetyl)amino)-phenylarsenoxide], the “half-time for GSAO mediated swelling of the mitochondria” value in series [1] (50-200 μM GSAO, increasing Ca^2+ concentration) is “reduced by added Ca^2+”. The “swelling of isolated rat liver mitochondria” value in series [1] (GSAO 25-200 μM, GSAA, GSCA 100 μM, 60 min) is recorded as “triggered swelling”. Moreover, the “mitochondrial depolarisation (JC-1) and apoptosis (annexin V binding)” value in [2] is “triggered mitochondrial depolarisation and induced apoptosis”. In addition, the IC50 is 150 µM in [3] (setting [13]); 80 µM in series [3] (setting [14]); ~75 µM and 75 µM in [4] (setting [13]); ~10 µM and 10 µM in [4] (setting [14]); > 320 µM in series [5] (setting [13]); > 320 µM in [5] (setting [14]). Besides, the IC50 in series [6] (setting [13]) is ~35 µM and 35 µM; in series [6] (setting [14]), ~15 µM and 15 µM; in series [7] (setting [13]), 140 µM; in [7] (setting [14]), 50 µM; in series [8] (setting [13]) it was 130 µM; in series [8] (setting [14]), 95 µM. In series [9], this molecule returned an IC50 of 140 µM. Also, in [5] (Table 1), the “concentration without effect on BxPC-3 proliferation relative to endothelial proliferation arrest” value was > 30 fold. Also, the “proliferative index (PCNA)” value in [10] was “the same”. Moreover, the “blood vessel density (CD31)” value in [10] (p<0.001) is “significant reduction”. Also, in [10] (p=0.05), the “apoptotic index (TUNEL)” value is recorded as “significant increase”. For the same molecule, the “adverse affects of administration” value in [11] (10 mg/kg/day s.c.) is “no apparent adverse affects”. Besides, the “morphological changes in the heart, lungs, liver, kidneys, and spleen” value in series [11] (10 mg/kg/day s.c.) was “no morphological changes”. Further, in series [11] (GSAO versus GSAA treatment groups), the “average mice weights over the course of the experiments” value was “the same”. The “side-effects (behavioural, skin necrosis, weight loss) with GSAO administration” value in [12] is reported as “not observed”.
